Data: ChEMBL document CHEMBL2040549, “Inhibition of cap (m7GpppXm)-dependent endonuclease of influenza virus by 4-substituted 2,4-dioxobutanoic acid compounds” (Antimicrob Agents Chemother, 1994)

Target: Polymerase acidic protein (Influenza A virus (A/Puerto Rico/8/1934(H1N1)), UniProt P03433)
Assay: Inhibition of cap 1 ALMV primed Influenza transcriptase

Row | SMILES | IC50 [µM]
1 | O=C(O)C(=O)CCc1ccccc1 | > 500
2 | O=C(CC(O)C(=O)O)c1ccccc1 (stereo not drawn) | > 500
3 | O=C(O)/C(O)=C/C(=O)C1(Cc2ccc(Cl)cc2)CCCN(S(=O)(=O)Cc2ccccc2)C1 (stereo not drawn) | 0.19
4 | O=C(O)/C(O)=C/C(=O)C1CCCCC1 | 29.4
5 | CC(C)C(=O)/C=C(\O)C(=O)O | 56.7
6 | CC(=O)/C=C(\O)C(=O)O | 307
7 | NC(CC(=O)c1ccccc1)C(=O)O (stereo not drawn) | > 500
8 | O=C(O)/C(O)=C/S(=O)(=O)c1ccccc1 | > 500
9 | O=C(O)/C(O)=C/c1cc2ccccc2o1 | > 500
10 | O=C(O)/C(O)=C/c1nc2ccccc2s1 | > 500
11 | Cn1c(/C=C(\O)C(=O)O)nc2ccccc21 | > 500
12 | O=C(O)/C(O)=C/c1nc2ccccc2o1 | 100
13 | NC(=O)/C(O)=C/C(=O)C1CCCCC1 | > 500
